Assay results: patent US20240360178A1, “MACROCYCLIC IMMUNOMODULATORS” (Bristol-Myers Squibb Company, priority 2021, published 2024)
Positions of bridges follow the written chain, without caps; N, C: chain ends. Non-standard residues stand in square brackets, D forms with d. Residues, ends and D or L forms follow the SMILES beside them. ξ: configuration not given here. *: point of attachment. Phe(4-CH2NH2) = NCc1ccc(C[C@H](N)C(=O)O)cc1; Bip = N[C@@H](Cc1ccc(-c2ccccc2)cc1)C(=O)O; Phe(3-OMe) = COc1cccc(C[C@H](N)C(=O)O)c1; Phe(3-Me) = Cc1cccc(C[C@H](N)C(=O)O)c1; Val(3-OH) = CC(C)(O)[C@H](N)C(=O)O; NMeF = CN[C@@H](Cc1ccccc1)C(=O)O; 4Pal = N[C@@H](Cc1ccncc1)C(=O)O; dHyp = O=C(O)[C@H]1C[C@H](O)CN1; Cha = N[C@@H](CC1CCCCC1)C(=O)O; dPip = O=C(O)[C@H]1CCCCN1; Carboxymethyl = O=C(O)C*; NMeA = CN[C@@H](C)C(=O)O; Orn = NCCC[C@H](N)C(=O)O; Dab = NCC[C@H](N)C(=O)O; ξE = NC(CCC(=O)O)C(=O)O; Dap = NC[C@H](N)C(=O)O; ξV = CC(C)C(N)C(=O)O; Sar = CNCC(=O)O

target: T1, human PD-1 (Jurkat-PD-1 cells) / PE-labeled human PD-L1-Ig (Homo sapiens, UniProt Q15116); assay: Jurkat-PD-1 Cell Binding High-Content Screening Assay (CBA); Jurkat hPD1-PDL1 assay; details: Jurkat cell line over-expressing human PD-1; PE-labeled PD-L1-Ig 20 nM final; compound incubated 2 hours at 37° C.; read-out: Jurkat HPD1-PDL1 IC50
T1 construct: expressed in transfected cells; host or cells: Jurkat cell line over-expressing human PD-1
In short: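 Binding of phycoerythrin-conjugated PD-L1-Ig (20 nM final) to PD-1-overexpressing Jurkat cells was read by high-content imaging. Cells in DMEM/10% FCS were exposed to compound for 2 hours at 37° C before labeled ligand was added.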

T1 sequence (Q15116 25-288): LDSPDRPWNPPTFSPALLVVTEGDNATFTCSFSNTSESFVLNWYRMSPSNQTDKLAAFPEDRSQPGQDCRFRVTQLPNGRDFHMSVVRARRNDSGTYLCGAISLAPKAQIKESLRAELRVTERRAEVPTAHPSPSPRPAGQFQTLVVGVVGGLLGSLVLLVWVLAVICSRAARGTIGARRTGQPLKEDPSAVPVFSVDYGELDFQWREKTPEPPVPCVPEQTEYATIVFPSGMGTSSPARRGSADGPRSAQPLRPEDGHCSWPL

Row | Compound | IC50
1 | CC(C)C[C@@H]1NC(=O)[C@H](CCCNC(=N)N)NC(=O)[C@H](Cc2ccccc2)N(C)C(=O)[C@H](CCCN)NC(=O)[C@H](CCCNC(=N)N)NC(=O)[C@H](Cc2ccc(-c3ccccc3)cc2)NC(=O)[C@H](C(C)C)NC(=O)[C@H](Cc2c[nH]c3ccccc23)NC(=O)[C@H](CC(=O)O)NC(=O)[C@H](Cc2ccc(O)cc2)NC(=O)[C@H](CC(N)=O)NC(=O)CSC[C@@H](C(=O)N[C@@H](C)C(N)=O)NC(=O)[C@H]([C@@H](C)O)NC(=O)[C@H](C(C)C)NC1=O [Example 1383] ({CH2CO}-NYDWV[Bip]R[Orn][NMeF]RLVTCA-NH2; thioether N-14) | 630 nM
2 | CC(C)C[C@@H]1NC(=O)[C@H](CCCNC(=N)N)NC(=O)[C@H](Cc2ccccc2)N(C)C(=O)[C@H](CN)NC(=O)[C@H](CCCNC(=N)N)NC(=O)[C@H](Cc2ccc(-c3ccccc3)cc2)NC(=O)[C@H](C(C)C)NC(=O)[C@H](Cc2c[nH]c3ccccc23)NC(=O)[C@H](CC(=O)O)NC(=O)[C@H](Cc2ccc(O)cc2)NC(=O)[C@H](CC(N)=O)NC(=O)CSC[C@@H](C(=O)N[C@@H](C)C(N)=O)NC(=O)[C@H]([C@@H](C)O)NC(=O)[C@H](C(C)C)NC1=O [Example 1364] ({CH2CO}-NYDWV[Bip]R[Dap][NMeF]RLVTCA-NH2; thioether N-14) | 590 nM
3 | CC(C)C[C@@H]1NC(=O)[C@H](Cc2c[nH]c3ccccc23)NC(=O)[C@H](CC(=O)O)NC(=O)[C@H](Cc2ccncc2)NC(=O)[C@H](Cc2ccccc2)NC(=O)CSC[C@@H](C(=O)N[C@@H](C)C(N)=O)NC(=O)[C@H](CO)NC(=O)[C@H](C(C)C)NC(=O)[C@H](CC(C)C)NC(=O)[C@H](CC(N)=O)NC(=O)CN(C)C(=O)[C@H](C)N(C)C(=O)[C@H](C(C)C)NC(=O)[C@H](Cc2ccc(-c3ccccc3)cc2)NC1=O [Example 1064] ({CH2CO}-F[4Pal]DWL[Bip]V[NMeA][Sar]NLVSCA-NH2; thioether N-14) | 160 nM
4 | CC(C)C[C@@H]1NC(=O)[C@H](Cc2c[nH]c3ccccc23)NC(=O)[C@H](CC(=O)O)NC(=O)[C@H](Cc2ccc(O)cc2)NC(=O)[C@H](Cc2ccccc2)NC(=O)CSC[C@@H](C(=O)NCC(N)=O)NC(=O)[C@H](CO)NC(=O)[C@H](C(C)C)NC(=O)[C@H](CC(C)C)NC(=O)[C@H](CCC(N)=O)NC(=O)CN(C)C(=O)[C@H](C)N(C)C(=O)[C@H](C(C)C)NC(=O)[C@H](Cc2ccc(-c3ccccc3)cc2)NC1=O [Example 1072] ({CH2CO}-FYDWL[Bip]V[NMeA][Sar]QLVSCG-NH2; thioether N-14) | 190 nM
5 | CC(C)C[C@@H]1NC(=O)[C@H](Cc2c[nH]c3ccccc23)NC(=O)[C@H](CC(=O)O)NC(=O)[C@H](Cc2ccc(O)cc2)NC(=O)[C@H](Cc2ccccc2)NC(=O)CSC[C@@H](C(=O)N[C@@H](C)C(N)=O)NC(=O)[C@H]([C@@H](C)O)NC(=O)[C@H](C(C)C)NC(=O)[C@H](CC(C)C)NC(=O)[C@H](CCN)NC(=O)[C@H]2CCCN2C(=O)[C@H](CCCN)NC(=O)[C@H](C(C)C)NC(=O)[C@H](Cc2ccc(-c3ccccc3)cc2)NC1=O [Example 1422] ({CH2CO}-FYDWL[Bip]V[Orn][dP][Dab]LVTCA-NH2; thioether N-14) | 140 nM
6 | CC(C)C[C@@H]1NC(=O)[C@H](Cc2c[nH]c3ccccc23)NC(=O)[C@H](CC(=O)O)NC(=O)[C@H](Cc2ccc(O)cc2)NC(=O)[C@H](Cc2ccccc2)NC(=O)CSC[C@@H](C(=O)N[C@@H](C)C(N)=O)NC(=O)[C@H](CO)NC(=O)[C@H](C(C)C)NC(=O)[C@H](CC(C)C)NC(=O)[C@H](CCCCN)NC(=O)CN(C)C(=O)[C@H](C)N(C)C(=O)[C@H](CCC(=O)O)NC(=O)[C@H](Cc2ccc(-c3ccccc3)cc2)NC1=O [Example 1134] ({CH2CO}-FYDWL[Bip]E[NMeA][Sar]KLVSCA-NH2; thioether N-14) | 540 nM
7 | COc1cccc(C[C@@H]2NC(=O)[C@H](CC(=O)O)NC(=O)[C@H](Cc3ccc(O)cc3)NC(=O)[C@H](Cc3ccccc3)NC(=O)CSC[C@@H](C(=O)N[C@@H](C)C(N)=O)NC(=O)[C@H](CO)NC(=O)[C@H](C(C)C)NC(=O)[C@H](CC(C)C)NC(=O)[C@H](CC(N)=O)NC(=O)[C@H]3CCCN3C(=O)[C@H](C)N(C)C(=O)[C@H](C(C)C)NC(=O)[C@H](Cc3ccc(-c4ccccc4)cc3)NC(=O)[C@H](CC(C)C)NC2=O)c1 [Example 1022] ({CH2CO}-FYD[Phe(3-OMe)]L[Bip]V[NMeA][dP]NLVSCA-NH2; thioether N-14) | 10 nM
8 | CC(C)C[C@@H]1NC(=O)[C@H](CCCNC(=N)N)NC(=O)[C@H](Cc2ccccc2)N(C)C(=O)[C@H](C)N(C)C(=O)[C@H](CCCNC(=N)N)NC(=O)[C@H](Cc2ccc(-c3ccccc3)cc2)NC(=O)[C@H](C(C)C)NC(=O)[C@H](Cc2c[nH]c3ccccc23)NC(=O)[C@H](CC(=O)O)NC(=O)[C@H](Cc2ccc(O)cc2)NC(=O)[C@H](Cc2ccccc2)NC(=O)CSC[C@@H](C(=O)NCC(N)=O)NC(=O)[C@H](CO)NC(=O)[C@H](C(C)C)NC1=O [Example 1000] ({CH2CO}-FYDWV[Bip]R[NMeA][NMeF]RLVSCG-NH2; thioether N-14) | 260 nM
9 | CC(C)C[C@@H]1NC(=O)[C@H](Cc2c[nH]c3ccccc23)NC(=O)[C@H](CC(=O)O)NC(=O)[C@H](Cc2ccc(O)cc2)NC(=O)[C@H](Cc2ccc(CN)cc2)NC(=O)CSC[C@@H](C(=O)NCC(N)=O)NC(=O)[C@H](CO)NC(=O)[C@H](C(C)C)NC(=O)[C@H](CC(C)C)NC(=O)[C@H](CC(N)=O)NC(=O)CN(C)C(=O)[C@H](C)N(C)C(=O)[C@H](C(C)C)NC(=O)[C@H](Cc2ccc(-c3ccccc3)cc2)NC1=O [Example 1160] ({CH2CO}-[Phe(4-CH2NH2)]YDWL[Bip]V[NMeA][Sar]NLVSCG-NH2; thioether N-14) | 870 nM
10 | CC(C)C[C@@H]1NC(=O)[C@H](Cc2c[nH]c3ccccc23)NC(=O)[C@H](CC(=O)O)NC(=O)[C@H](Cc2ccc(O)cc2)NC(=O)[C@H](Cc2ccccc2)NC(=O)CSC[C@@H](C(=O)NCC(N)=O)NC(=O)[C@H]([C@@H](C)O)NC(=O)[C@H](C(C)C)NC(=O)[C@H](CC(C)C)NC(=O)[C@H](CCN)NC(=O)[C@H]2CCCN2C(=O)[C@H](CCCN)NC(=O)[C@H](C(C)C)NC(=O)[C@H](Cc2ccc(-c3ccccc3)cc2)NC1=O [Example 1420] ({CH2CO}-FYDWL[Bip]V[Orn][dP][Dab]LVTCG-NH2; thioether N-14) | 130 nM
11 | CC(C)C[C@@H]1NC(=O)[C@H](Cc2c[nH]c3ccccc23)NC(=O)[C@H](CC(=O)O)NC(=O)[C@H](Cc2ccc(O)cc2)NC(=O)[C@H](Cc2ccccc2)NC(=O)CSC[C@@H](C(=O)N[C@@H](C)C(N)=O)NC(=O)[C@H](CO)NC(=O)[C@H](C(C)C)NC(=O)[C@H](CC(C)C)NC(=O)[C@H](CC(N)=O)NC(=O)CN(C)C(=O)[C@H]2C[C@H](O)CN2C(=O)C(C(C)C)NC(=O)[C@H](Cc2ccc(-c3ccccc3)cc2)NC1=O (stereo partly shown) [Example 1003] ({CH2CO}-FYDWL[Bip][ξV][dHyp][Sar]NLVSCA-NH2; thioether N-14) | 760 nM
12 | CC(C)C[C@@H]1NC(=O)[C@H](CCN)NC(=O)[C@H](Cc2ccccc2)N(C)C(=O)[C@H](C)N(C)C(=O)[C@H](CCCNC(=N)N)NC(=O)[C@H](Cc2ccc(-c3ccccc3)cc2)NC(=O)[C@H](C(C)C)NC(=O)[C@H](Cc2c[nH]c3ccccc23)NC(=O)[C@H](CC(=O)O)NC(=O)[C@H](Cc2ccc(O)cc2)NC(=O)[C@H](Cc2ccccc2)NC(=O)CSC[C@@H](C(=O)N[C@@H](C)C(N)=O)NC(=O)[C@H](CO)NC(=O)[C@H](C(C)C)NC1=O [Example 1304] ({CH2CO}-FYDWV[Bip]R[NMeA][NMeF][Dab]LVSCA-NH2; thioether N-14) | 60 nM
13 | CC(C)C[C@@H]1NC(=O)[C@H](Cc2c[nH]c3ccccc23)NC(=O)[C@H](CC(=O)O)NC(=O)[C@H](Cc2ccc(O)cc2)NC(=O)[C@H](Cc2ccccc2)NC(=O)CSC[C@@H](C(=O)N[C@@H](C)C(N)=O)NC(=O)[C@H](CO)NC(=O)[C@H](C(C)C)NC(=O)[C@H](CC(C)C)NC(=O)[C@H](CC(N)=O)NC(=O)[C@H](Cc2ccccc2)N(C)C(=O)[C@H](C)N(C)C(=O)[C@H](C(C)C)NC(=O)[C@H](Cc2ccc(-c3ccccc3)cc2)NC1=O [Example 1060] ({CH2CO}-FYDWL[Bip]V[NMeA][NMeF]NLVSCA-NH2; thioether N-14) | 140 nM
14 | CC(C)C[C@@H]1NC(=O)C(CCC(=O)O)NC(=O)[C@H](Cc2ccccc2)N(C)C(=O)[C@H](C)N(C)C(=O)[C@H](CCCNC(=N)N)NC(=O)[C@H](Cc2ccc(-c3ccccc3)cc2)NC(=O)[C@H](C(C)C)NC(=O)[C@H](Cc2c[nH]c3ccccc23)NC(=O)[C@H](CC(=O)O)NC(=O)[C@H](Cc2ccc(O)cc2)NC(=O)[C@H](Cc2ccccc2)NC(=O)CSC[C@@H](C(=O)NCC(N)=O)NC(=O)[C@H](CO)NC(=O)[C@H](C(C)C)NC1=O (stereo partly shown) [Example 1221] ({CH2CO}-FYDWV[Bip]R[NMeA][NMeF][ξE]LVSCG-NH2; thioether N-14) | 500 nM
15 | CC(C)C[C@@H]1NC(=O)[C@H](CCCNC(=N)N)NC(=O)[C@H](Cc2ccccc2)N(C)C(=O)[C@H](C)N(C)C(=O)[C@H](C)NC(=O)[C@H](Cc2ccc(-c3ccccc3)cc2)NC(=O)[C@H](C(C)C)NC(=O)[C@H](Cc2c[nH]c3ccccc23)NC(=O)[C@H](CC(=O)O)NC(=O)[C@H](Cc2ccc(O)cc2)NC(=O)[C@H](Cc2ccccc2)NC(=O)CSC[C@@H](C(=O)NCC(N)=O)NC(=O)[C@H](CO)NC(=O)[C@H](C(C)C)NC1=O [Example 1208] ({CH2CO}-FYDWV[Bip]A[NMeA][NMeF]RLVSCG-NH2; thioether N-14) | 820 nM
16 | Cc1cccc(C[C@@H]2NC(=O)[C@H](CC(=O)O)NC(=O)[C@H](Cc3ccc(OCC(=O)O)cc3)NC(=O)[C@H](CCCNC(=N)N)NC(=O)CSC[C@@H](C(=O)N[C@@H](CCN)C(N)=O)NC(=O)[C@H](CO)NC(=O)[C@H](C(C)(C)O)NC(=O)[C@H](CC3CCCCC3)NC(=O)[C@H](CCN)NC(=O)[C@H]3CCCCN3C(=O)[C@H]3CCCN3C(=O)[C@H](Cc3ccc(OCC(=O)O)cc3)NC(=O)[C@H](Cc3ccc(-c4ccccc4)cc3)NC(=O)[C@H](Cc3ccc(OCC(=O)O)cc3)NC2=O)c1 [Example 1190] ({CH2CO}-RY(Carboxymethyl)D[Phe(3-Me)]Y(Carboxymethyl)[Bip]Y(Carboxymethyl)[dP][dPip][Dab][Cha][Val(3-OH)]SC[Dab]-NH2; thioether N-14) | 550 nM
